Data from patent US6918445B2, “Methods and compositions for treating subterranean zones using environmentally safe polymer breakers” (Halliburton Energy Services, Inc., priority 2003, dated 2005).

Assay: Sodium perborate tetrahydrate solubility tests in fresh water
Format: physicochemical
Conditions: density 8.33 pounds per gallon, 75° F., with mixing; for Amount Dissolved (solubility of sodium perborate tetrahydrate in water): 10% by weight of water was a pass/fail target, not the maximum solubility
Procedure: Sodium perborate tetrahydrate solubility tests in fresh water having a density of 8.33 pounds per gallon were conducted. […] The sodium borate tetrahydrate-complex or ester forming compound mixtures all contained a molar ratio of sodium perborate tetrahydrate to the complex or ester forming compound of 1:2, and the mixtures were added to the water in amounts whereby the sodium perborate tetrahydrate was present in an amount of 10% by weight of the water.

Structure (SMILES): O.O.O.O.[Na+].[O-]B1OO1 [Sodium Perborate Tetrahydrate]
- Amount Dissolved (solubility of sodium perborate tetrahydrate in water): 2.5% by weight of water
- Amount Dissolved (solubility of sodium perborate tetrahydrate in water) (listed as sodium perborate tetrahydrate): 2.5 % by weight of water
- Time Required (time to dissolve the stated amount): <15 min
